The results in this text go back to PubChem BioAssay (NCI).

Test systems include EKVX NSCLC; HCC-2998 colon; HOP-92 NSCLC; K-562 leukemia; MALME-3M melanoma; MDA-MB-435; OVCAR-4 ovarian; OVCAR-5 ovarian; OVCAR-8 ovarian; SF-539 CNS.
Assay in all cases: NCI tumour cell line growth inhibition, 48 h

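Grown in 96-well plates, cells were treated for 48 hours with each compound at five concentrations. Insufficient inhibition: endpoint recorded as highest concentration tested. GI50 is the concentration that inhibits growth by half. Definition used: TGI = concentration required for complete inhibition of growth.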 Where only a bound is given, the exact number is not on record here.

`O=C(NCc1ccc(Cn2c(=O)sn(-c3ccccc3)c2=O)cc1)OCc1ccc2cccc(O)c2n1`: the GI50 in the assay on EKVX NSCLC is 1500 nM; in the assay with HCC-2998 colon, 1.81 µM; in the assay with HOP-92 NSCLC it was 0.459 µM; in the assay on K-562 leukemia, 0.403 µM; in the assay on MALME-3M melanoma, 1480 nM; with MDA-MB-435 it was 709 nM. The GI50 is 947 nM in the assay with OVCAR-4 ovarian, 1.54 µM with OVCAR-5 ovarian, 957 nM in the assay on OVCAR-8 ovarian and 1050 nM in the assay with SF-539 CNS. Further, the TGI was 3.05 µM with EKVX NSCLC; 3.51 µM in the assay with HCC-2998 colon; 1.97 µM with HOP-92 NSCLC; over 100 µM in the assay with K-562 leukemia; 2.86 µM in the assay with MALME-3M melanoma; 2.03 µM in the assay with MDA-MB-435. The TGI amounted to 2.28 µM with OVCAR-4 ovarian, 3.12 µM in the assay on OVCAR-5 ovarian, 3 µM in the assay with OVCAR-8 ovarian and 2.3 µM with SF-539 CNS.

On to `O=C1Nc2ccccc2/C1=C1\CCc2cc(O)ccc21`, for which the GI50 in the assay with EKVX NSCLC was 4170 nM; with HCC-2998 colon it was 9.41 µM; with HOP-92 NSCLC, 5.93 µM; in the assay with K-562 leukemia, 9.09 µM; in the assay with MALME-3M melanoma, 8110 nM; in the assay with MDA-MB-435, 2240 nM. Further, the GI50 in the assay with OVCAR-4 ovarian is 7020 nM; with OVCAR-5 ovarian it was 16.1 µM; in the assay with OVCAR-8 ovarian, 10400 nM; in the assay with SF-539 CNS it was 9640 nM. In addition, the TGI in the assay with EKVX NSCLC was over 25 µM; with HCC-2998 colon, over 25 µM; in the assay with HOP-92 NSCLC, 22.8 µM; with K-562 leukemia it was over 25 µM; in the assay with MALME-3M melanoma it was over 25 µM; in the assay with MDA-MB-435, over 25 µM. Also, the TGI in the assay on OVCAR-4 ovarian, in the assay on OVCAR-5 ovarian, with OVCAR-8 ovarian and in the assay on SF-539 CNS was over 25 µM throughout.

For the molecule `COc1ccc(-c2cnnn2-c2nonc2-n2cccc2)cc1`, the GI50 in the assay with EKVX NSCLC is 547 nM; in the assay with HCC-2998 colon, 0.235 µM; with HOP-92 NSCLC, 0.437 µM; with K-562 leukemia, 0.039 µM; with MALME-3M melanoma, 382 nM; in the assay on MDA-MB-435 it was 32.5 nM. The GI50 with OVCAR-4 ovarian was 1780 nM; in the assay on OVCAR-5 ovarian it was 1.45 µM; in the assay on OVCAR-8 ovarian it was 425 nM; in the assay with SF-539 CNS it was 321 nM. For the same molecule, the TGI with EKVX NSCLC was over 94.7 µM; with HCC-2998 colon, 2.89 µM; in the assay with HOP-92 NSCLC it was 43.9 µM; in the assay on K-562 leukemia, over 100 µM; in the assay with MALME-3M melanoma, 27.6 µM; in the assay with MDA-MB-435, 0.173 µM. Moreover, the TGI was over 100 µM with OVCAR-4 ovarian, over 100 µM in the assay with OVCAR-5 ovarian, 18.9 µM in the assay on OVCAR-8 ovarian and 4 µM in the assay on SF-539 CNS.

For the molecule `O=C1CCCN1c1ccccc1I(=O)=O`, the GI50 is over 100000 nM in the assay with EKVX NSCLC; over 100 µM in the assay on HCC-2998 colon; over 100 µM in the assay on HOP-92 NSCLC; over 100 µM in the assay on K-562 leukemia; over 100000 nM in the assay on MALME-3M melanoma; over 100000 nM in the assay on MDA-MB-435. Besides, the GI50 in the assay with OVCAR-4 ovarian was over 100000 nM; in the assay with OVCAR-5 ovarian, over 100 µM; in the assay on OVCAR-8 ovarian it was over 100000 nM; in the assay with SF-539 CNS, over 100000 nM. Moreover, the TGI in the assay with EKVX NSCLC, in the assay on HCC-2998 colon, in the assay on HOP-92 NSCLC, in the assay on K-562 leukemia, in the assay on MALME-3M melanoma and in the assay on MDA-MB-435 was over 100 µM throughout. In addition, the TGI with OVCAR-4 ovarian, in the assay with OVCAR-5 ovarian, with OVCAR-8 ovarian and with SF-539 CNS was over 100 µM each time.

`Cc1ccc(OCCOCCOCCOCCOc2ccc(C)n(O)c2=S)c(=S)n1O`: the GI50 with EKVX NSCLC is 21.3 nM; in the assay with HCC-2998 colon, 0.25 µM; in the assay on HOP-92 NSCLC, 4.78 µM; with K-562 leukemia, under 0.01 µM; with MALME-3M melanoma, 64.4 nM; in the assay with MDA-MB-435, 366 nM. Also, the GI50 in the assay on OVCAR-4 ovarian is under 10.5 nM; in the assay with OVCAR-5 ovarian, 0.408 µM; in the assay with OVCAR-8 ovarian, under 13.7 nM; in the assay with SF-539 CNS, 317 nM. The TGI in the assay on EKVX NSCLC was over 100 µM; in the assay with HCC-2998 colon, over 100 µM; in the assay with HOP-92 NSCLC it was over 90.8 µM; in the assay with K-562 leukemia it was over 100 µM; in the assay on MALME-3M melanoma, over 52.7 µM; in the assay on MDA-MB-435, over 100 µM. Further, the TGI in the assay on OVCAR-4 ovarian was 55 µM; in the assay with OVCAR-5 ovarian, over 100 µM; in the assay on OVCAR-8 ovarian, over 100 µM; in the assay with SF-539 CNS it was over 100 µM.

As to `C=CC(=O)N1CN(C(=O)C=C)CN(C(=O)C=C)C1`, the GI50 in the assay with EKVX NSCLC is 9020 nM; in the assay on HCC-2998 colon, 10.2 µM; in the assay on HOP-92 NSCLC, 3.56 µM; with K-562 leukemia, 3.01 µM; in the assay on MALME-3M melanoma, 2810 nM; in the assay on MDA-MB-435, 2960 nM. For the same molecule, the GI50 with OVCAR-4 ovarian is 5060 nM; with OVCAR-5 ovarian, 10.6 µM; in the assay with OVCAR-8 ovarian it was 2930 nM; in the assay with SF-539 CNS, 2980 nM. Further, the TGI in the assay with EKVX NSCLC was 26.2 µM; in the assay on HCC-2998 colon it was 25.3 µM; in the assay on HOP-92 NSCLC, 13 µM; with K-562 leukemia, 9.83 µM; with MALME-3M melanoma, 7.2 µM; with MDA-MB-435, 10.7 µM. For the same molecule, the TGI with OVCAR-4 ovarian was 21.2 µM; in the assay on OVCAR-5 ovarian, 24.7 µM; in the assay with OVCAR-8 ovarian, over 100 µM; in the assay on SF-539 CNS, 48.3 µM.

`COc1ccc(-c2nn(-c3cccc(Cl)c3)cc2-c2cc(-c3ccccc3)[nH]c(=O)c2C#N)cc1`: the GI50 in the assay on EKVX NSCLC was 1370 nM; in the assay on HCC-2998 colon, 15.9 µM; in the assay on HOP-92 NSCLC it was 0.654 µM; in the assay with K-562 leukemia, 9.22 µM; with MALME-3M melanoma it was 13700 nM; in the assay on MDA-MB-435, over 50000 nM. Besides, the GI50 in the assay with OVCAR-4 ovarian was 1250 nM; with OVCAR-5 ovarian it was 32.3 µM; in the assay on OVCAR-8 ovarian it was 1670 nM; in the assay on SF-539 CNS, 1010 nM. For the same molecule, the TGI was over 50 µM with EKVX NSCLC; over 50 µM with HCC-2998 colon; 2.14 µM with HOP-92 NSCLC; over 50 µM in the assay with K-562 leukemia; over 50 µM with MALME-3M melanoma; over 50 µM with MDA-MB-435. In addition, the TGI was 5.34 µM with OVCAR-4 ovarian, over 50 µM in the assay on OVCAR-5 ovarian, over 50 µM in the assay on OVCAR-8 ovarian and 2.75 µM in the assay with SF-539 CNS.
